What is called IC50 is the concentration that gives 50% inhibition.

For 32 molecules, IC50 and inhibition results are on record in ChEMBL document CHEMBL5338773, “First-in-Class Selective Inhibitors of the Lysine Acetyltransferase KAT8” (J Med Chem, 2023).

The nature of test [1]: Inhibition of human recombinant KDAC8.
The target of test [2] is T1, Histone acetyltransferase KAT8 (Homo sapiens) (UniProt Q9H7Z6).
T1 sequence (whole entry): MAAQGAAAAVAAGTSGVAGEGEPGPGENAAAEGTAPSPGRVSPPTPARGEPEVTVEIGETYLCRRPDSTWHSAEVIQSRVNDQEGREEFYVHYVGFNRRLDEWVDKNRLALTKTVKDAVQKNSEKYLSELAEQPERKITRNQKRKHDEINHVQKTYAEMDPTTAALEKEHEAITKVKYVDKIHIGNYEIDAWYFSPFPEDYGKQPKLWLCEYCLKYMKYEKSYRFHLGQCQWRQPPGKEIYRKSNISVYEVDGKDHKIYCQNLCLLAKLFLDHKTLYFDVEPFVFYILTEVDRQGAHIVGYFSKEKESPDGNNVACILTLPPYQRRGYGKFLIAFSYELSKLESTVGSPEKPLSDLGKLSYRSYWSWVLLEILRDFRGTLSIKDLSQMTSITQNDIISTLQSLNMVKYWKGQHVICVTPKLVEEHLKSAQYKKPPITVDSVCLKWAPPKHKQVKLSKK
Put plainly: Inhibition of N-terminal 6His tagged KAT8 (173 to 458 residues) (unknown origin) expressed in Escherichia coli BL21(DE3) using biotinylated histone H4 peptide and [3H]Acetyl-CoA as substrates at 200 uM preincubated for 20 mins followed by substrate addition and measured after 4 hrs by MicroBeta microplate counter analysis. To be noted: time 260.0 min.

Test [3] concerns the target Histone acetyltransferase KAT2B (Homo sapiens) (UniProt Q92831). Put plainly: Inhibition of recombinant human KAT2B (492 to 658 residues) using histone H3 peptide and [3H]-acetyl-coA as substrates at 200 uM incubated for 1 hrs by liquid scintillation counter analysis.
The species named for test [4] is Homo sapiens. Put plainly: Inhibition of human recombinant KDAC1 using Boc-Lys-(Ac)-AMC as substrate at 50 to 100 uM incubated for 45 mins by fluorescence microplate reader analysis. As to conditions: dose 50-100 µM.
The target in test [5] is Histone deacetylase 2 (Homo sapiens) (UniProt Q92769). Put plainly: Inhibition of human recombinant KDAC2 using Boc-Lys-(Ac)-AMC as substrate at 50 to 100 uM incubated for 45 mins by fluorescence microplate reader analysis. As to conditions: dose 50-100 µM.
Test [6] has as its target Histone deacetylase 3 (Homo sapiens) (UniProt O15379). In words: Inhibition of human recombinant KDAC3 using Boc-Lys-(Ac)-AMC as substrate at 50 to 100 uM incubated for 45 mins by fluorescence microplate reader analysis. To be noted: dose 50-100 µM.
Test [7] deals with T2, Protein deacetylase HDAC6 (Homo sapiens) (UniProt Q9UBN7).
T2 sequence (whole entry): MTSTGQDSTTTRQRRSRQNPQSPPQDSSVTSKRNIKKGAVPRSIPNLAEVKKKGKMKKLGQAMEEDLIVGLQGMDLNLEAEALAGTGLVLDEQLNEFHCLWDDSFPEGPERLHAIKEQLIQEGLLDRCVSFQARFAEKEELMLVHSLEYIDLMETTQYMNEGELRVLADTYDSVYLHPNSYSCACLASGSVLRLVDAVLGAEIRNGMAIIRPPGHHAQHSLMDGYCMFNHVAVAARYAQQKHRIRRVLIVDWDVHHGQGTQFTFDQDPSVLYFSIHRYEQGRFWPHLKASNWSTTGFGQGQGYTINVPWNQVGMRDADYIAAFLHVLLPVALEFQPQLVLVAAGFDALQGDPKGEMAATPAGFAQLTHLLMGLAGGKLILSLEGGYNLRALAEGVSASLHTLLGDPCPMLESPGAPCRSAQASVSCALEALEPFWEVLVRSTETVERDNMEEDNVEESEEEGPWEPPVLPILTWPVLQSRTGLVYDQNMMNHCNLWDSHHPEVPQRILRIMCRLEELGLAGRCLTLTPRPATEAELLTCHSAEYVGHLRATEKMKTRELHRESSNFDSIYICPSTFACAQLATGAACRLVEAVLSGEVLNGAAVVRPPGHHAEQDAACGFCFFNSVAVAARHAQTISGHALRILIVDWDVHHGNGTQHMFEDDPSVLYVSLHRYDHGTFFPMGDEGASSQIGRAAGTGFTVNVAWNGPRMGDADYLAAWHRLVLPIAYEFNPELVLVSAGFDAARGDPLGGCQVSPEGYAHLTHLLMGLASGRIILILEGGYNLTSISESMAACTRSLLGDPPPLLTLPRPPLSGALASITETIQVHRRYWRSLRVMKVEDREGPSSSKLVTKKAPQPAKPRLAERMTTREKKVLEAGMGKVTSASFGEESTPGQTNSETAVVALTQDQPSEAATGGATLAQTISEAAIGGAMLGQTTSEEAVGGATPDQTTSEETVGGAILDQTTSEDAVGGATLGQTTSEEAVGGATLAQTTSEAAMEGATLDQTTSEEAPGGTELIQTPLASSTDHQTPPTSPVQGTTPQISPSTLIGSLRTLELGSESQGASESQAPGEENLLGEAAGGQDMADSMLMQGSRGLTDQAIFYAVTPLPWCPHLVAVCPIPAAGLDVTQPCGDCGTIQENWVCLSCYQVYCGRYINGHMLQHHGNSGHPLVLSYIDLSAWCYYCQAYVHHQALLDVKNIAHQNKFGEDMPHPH
Put plainly: Inhibition of human recombinant KDAC6 using Boc-Lys-(Ac)-AMC as substrate at 50 to 100 uM incubated for 45 mins by fluorescence microplate reader analysis. To be noted: dose 50-100 µM.

Test [8] is filed under the species Homo sapiens. In words: Inhibition of human recombinant KDAC8 using Boc-Lys-(Ac)-AMC as substrate at 50 to 100 uM incubated for 45 mins by fluorescence microplate reader analysis. As to conditions: dose 50-100 µM.
For test [9], the target named is Histone acetyltransferase p300 (Homo sapiens) (UniProt Q09472). In words: Inhibition of recombinant human KAT3B (1287 to 1673 residues) using histone H3 peptide and [3H]-acetyl-coA as substrates at 200 uM incubated for 1 hrs by liquid scintillation counter analysis.

SMILES strings stand for the structures. The source made the active and inactive calls. The calls are words filed in the database; no cut-off is given here.

Chain of Histone acetyltransferase p300 (Homo sapiens) (Q09472 whole entry, the tested form may be a part): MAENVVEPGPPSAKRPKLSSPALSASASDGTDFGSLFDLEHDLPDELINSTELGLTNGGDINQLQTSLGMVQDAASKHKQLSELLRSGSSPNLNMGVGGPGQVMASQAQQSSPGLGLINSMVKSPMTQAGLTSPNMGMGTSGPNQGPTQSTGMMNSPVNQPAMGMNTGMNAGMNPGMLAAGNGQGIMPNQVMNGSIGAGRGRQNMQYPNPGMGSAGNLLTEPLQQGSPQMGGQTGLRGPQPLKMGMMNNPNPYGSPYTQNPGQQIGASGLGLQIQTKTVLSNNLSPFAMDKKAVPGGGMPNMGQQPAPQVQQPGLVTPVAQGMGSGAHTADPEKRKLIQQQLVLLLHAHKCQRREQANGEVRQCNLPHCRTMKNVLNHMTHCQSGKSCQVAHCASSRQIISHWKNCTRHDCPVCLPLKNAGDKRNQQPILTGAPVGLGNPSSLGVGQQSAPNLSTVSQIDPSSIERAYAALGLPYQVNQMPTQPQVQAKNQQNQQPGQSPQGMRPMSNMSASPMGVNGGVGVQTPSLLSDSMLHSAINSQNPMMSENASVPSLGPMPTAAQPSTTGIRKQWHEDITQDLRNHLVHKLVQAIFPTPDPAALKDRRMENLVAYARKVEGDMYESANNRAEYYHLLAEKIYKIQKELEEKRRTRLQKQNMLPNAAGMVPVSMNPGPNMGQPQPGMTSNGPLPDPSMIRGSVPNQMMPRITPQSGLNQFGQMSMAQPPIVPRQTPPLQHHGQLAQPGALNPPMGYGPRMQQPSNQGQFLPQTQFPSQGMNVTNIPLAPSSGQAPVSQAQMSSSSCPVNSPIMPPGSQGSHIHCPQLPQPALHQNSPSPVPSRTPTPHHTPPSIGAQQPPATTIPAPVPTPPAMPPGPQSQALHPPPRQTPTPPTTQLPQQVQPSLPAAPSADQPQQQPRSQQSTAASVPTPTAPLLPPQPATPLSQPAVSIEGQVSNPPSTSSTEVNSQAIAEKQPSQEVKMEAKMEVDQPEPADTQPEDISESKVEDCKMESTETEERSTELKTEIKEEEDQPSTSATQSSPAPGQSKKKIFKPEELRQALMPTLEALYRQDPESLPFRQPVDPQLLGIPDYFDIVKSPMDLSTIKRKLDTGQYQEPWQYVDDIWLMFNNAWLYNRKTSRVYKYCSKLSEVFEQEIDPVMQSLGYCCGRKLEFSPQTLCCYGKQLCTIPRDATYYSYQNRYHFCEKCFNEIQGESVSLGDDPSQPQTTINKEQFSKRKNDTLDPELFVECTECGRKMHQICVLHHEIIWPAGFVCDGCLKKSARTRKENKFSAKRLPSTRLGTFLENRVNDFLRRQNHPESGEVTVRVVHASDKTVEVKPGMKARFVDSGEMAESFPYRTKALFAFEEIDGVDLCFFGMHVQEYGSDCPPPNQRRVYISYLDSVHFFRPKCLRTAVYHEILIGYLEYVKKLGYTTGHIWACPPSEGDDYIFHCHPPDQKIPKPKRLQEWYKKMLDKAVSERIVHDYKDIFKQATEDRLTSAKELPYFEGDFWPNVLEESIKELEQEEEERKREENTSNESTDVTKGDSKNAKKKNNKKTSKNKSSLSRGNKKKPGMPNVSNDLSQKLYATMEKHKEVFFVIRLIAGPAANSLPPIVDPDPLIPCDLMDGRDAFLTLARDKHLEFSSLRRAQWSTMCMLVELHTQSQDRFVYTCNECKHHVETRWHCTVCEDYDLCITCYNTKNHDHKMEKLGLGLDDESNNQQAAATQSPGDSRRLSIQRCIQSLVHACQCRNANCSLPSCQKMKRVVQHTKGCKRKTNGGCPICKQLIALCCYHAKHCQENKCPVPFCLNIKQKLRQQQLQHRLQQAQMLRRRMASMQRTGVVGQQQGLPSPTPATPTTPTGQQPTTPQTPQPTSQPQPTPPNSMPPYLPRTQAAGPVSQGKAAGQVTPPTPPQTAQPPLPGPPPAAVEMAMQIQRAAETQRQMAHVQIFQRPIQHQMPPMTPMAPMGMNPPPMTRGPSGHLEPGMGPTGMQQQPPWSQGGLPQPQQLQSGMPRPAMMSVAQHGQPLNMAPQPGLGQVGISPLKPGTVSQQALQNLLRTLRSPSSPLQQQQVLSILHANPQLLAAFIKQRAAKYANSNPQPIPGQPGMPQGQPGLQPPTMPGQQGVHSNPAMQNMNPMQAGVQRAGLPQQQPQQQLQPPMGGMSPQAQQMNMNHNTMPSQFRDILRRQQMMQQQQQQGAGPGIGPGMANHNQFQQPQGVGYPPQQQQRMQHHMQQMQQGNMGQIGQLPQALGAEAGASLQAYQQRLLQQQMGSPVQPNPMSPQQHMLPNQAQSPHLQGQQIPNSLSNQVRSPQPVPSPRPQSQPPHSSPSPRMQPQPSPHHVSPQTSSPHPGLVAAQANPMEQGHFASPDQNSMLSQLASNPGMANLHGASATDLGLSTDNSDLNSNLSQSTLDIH
Chain of Histone acetyltransferase KAT2B (Homo sapiens) (Q92831 whole entry, looked up, the tested form may be a part): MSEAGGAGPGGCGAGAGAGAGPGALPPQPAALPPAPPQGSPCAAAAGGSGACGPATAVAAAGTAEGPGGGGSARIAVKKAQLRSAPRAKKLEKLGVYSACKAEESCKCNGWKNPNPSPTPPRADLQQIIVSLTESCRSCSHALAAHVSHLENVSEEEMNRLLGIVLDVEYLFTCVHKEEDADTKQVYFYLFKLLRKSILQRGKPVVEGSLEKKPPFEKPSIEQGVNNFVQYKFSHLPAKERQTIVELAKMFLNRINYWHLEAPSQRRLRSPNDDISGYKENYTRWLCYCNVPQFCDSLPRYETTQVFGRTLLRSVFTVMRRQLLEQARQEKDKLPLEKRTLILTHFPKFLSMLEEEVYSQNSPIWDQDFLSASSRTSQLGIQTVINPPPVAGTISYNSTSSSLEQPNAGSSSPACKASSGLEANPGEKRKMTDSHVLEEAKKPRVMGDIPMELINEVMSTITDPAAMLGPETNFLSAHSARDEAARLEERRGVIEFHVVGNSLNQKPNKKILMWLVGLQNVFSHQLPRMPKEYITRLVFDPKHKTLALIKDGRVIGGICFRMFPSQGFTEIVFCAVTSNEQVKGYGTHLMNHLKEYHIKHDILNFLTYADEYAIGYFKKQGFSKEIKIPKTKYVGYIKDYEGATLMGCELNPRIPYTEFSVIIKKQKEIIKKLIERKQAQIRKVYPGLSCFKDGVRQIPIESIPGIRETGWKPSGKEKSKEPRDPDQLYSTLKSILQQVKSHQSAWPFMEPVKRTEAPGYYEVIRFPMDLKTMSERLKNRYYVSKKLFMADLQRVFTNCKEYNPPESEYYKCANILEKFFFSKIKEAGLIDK
Chain of Histone deacetylase 3 (Homo sapiens) (O15379 whole entry): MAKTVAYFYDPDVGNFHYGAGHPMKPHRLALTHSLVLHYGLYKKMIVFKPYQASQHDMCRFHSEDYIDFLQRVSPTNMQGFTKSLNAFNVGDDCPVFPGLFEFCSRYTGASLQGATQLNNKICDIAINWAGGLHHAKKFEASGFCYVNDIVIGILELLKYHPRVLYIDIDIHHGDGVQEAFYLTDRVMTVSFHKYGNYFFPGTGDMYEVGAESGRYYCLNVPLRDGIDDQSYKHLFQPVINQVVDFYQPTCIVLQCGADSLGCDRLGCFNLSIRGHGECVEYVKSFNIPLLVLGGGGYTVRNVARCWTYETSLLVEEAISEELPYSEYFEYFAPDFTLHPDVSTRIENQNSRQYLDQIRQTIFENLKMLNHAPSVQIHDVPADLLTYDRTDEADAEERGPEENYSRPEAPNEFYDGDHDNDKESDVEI
Chain of Histone deacetylase 2 (Homo sapiens) (Q92769 whole entry): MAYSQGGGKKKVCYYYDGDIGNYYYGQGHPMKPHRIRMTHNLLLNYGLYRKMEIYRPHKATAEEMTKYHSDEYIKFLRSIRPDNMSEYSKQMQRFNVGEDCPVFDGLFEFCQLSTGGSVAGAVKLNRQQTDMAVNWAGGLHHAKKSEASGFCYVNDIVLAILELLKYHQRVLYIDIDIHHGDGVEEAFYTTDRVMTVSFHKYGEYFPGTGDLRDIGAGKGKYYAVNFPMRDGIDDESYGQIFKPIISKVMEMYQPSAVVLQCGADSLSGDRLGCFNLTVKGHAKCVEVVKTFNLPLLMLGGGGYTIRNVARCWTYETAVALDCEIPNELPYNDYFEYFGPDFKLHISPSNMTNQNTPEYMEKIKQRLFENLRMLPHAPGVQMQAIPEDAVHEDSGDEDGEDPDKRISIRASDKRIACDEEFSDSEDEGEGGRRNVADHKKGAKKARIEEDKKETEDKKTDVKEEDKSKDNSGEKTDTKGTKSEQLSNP

For the molecule `CC1=NN(c2ccc(C(=O)O)cc2)C(=O)/C1=C\c1ccc(-c2cc(C)c(C)cc2[N+](=O)[O-])o1`, the IC50 in test [1] was 7 µM. Besides, the inhibition result in test [2] and in test [3] was “inactive” throughout. Besides, the inhibition result (in the test listed under Homo sapiens [4]; in test [5]; in test [6]; in test [7]; in the test listed under Homo sapiens [8]) was “Active” each time. `CC1=NN(c2ccccc2)C(=O)/C1=C\c1cc(C(=O)c2ccccc2)c[nH]1`: the inhibition entry in [2] is “inactive”. Turning to `Cc1nn(-c2ccc(C(=O)O)cc2)c(O)c1Cc1ccc[nH]1`, the inhibition entry in test [9] and in test [3] was “inactive” each time. In the case of `CC1=NN(c2ccc(C(=O)O)cc2)C(=O)/C1=C\c1c[nH]cn1`, the inhibition entry in test [3] is “inactive”. With `CC(C)C1=NN(c2ccc(C(=O)O)cc2)C(=O)/C1=C\c1ccc[nH]1`, the inhibition entry in test [9] and in test [3] was “inactive” each time. Regarding `CC1=NN(c2ccc(C(=O)O)cc2)C(=O)/C1=C\c1cccn1-c1ccccc1`, in test [3], the inhibition result is “inactive”. `CC1=NN(c2ccccc2)C(=O)/C1=C\c1cc(C(=O)c2ccccc2[N+](=O)[O-])c[nH]1`: the inhibition entry in test [2] is “inactive”. As for `CC1=NN(c2ccc(C(=O)O)cc2)C(=O)/C1=C\c1cc(C(=O)c2ccccc2Cl)c[nH]1`, in [3], the inhibition entry was “inactive”. Turning to `CC1=NN(c2ccc(C(=O)O)cc2)C(=O)/C1=C\c1ccccc1`, the inhibition entry in [9] and in test [3] was “inactive” throughout. For `CC1=NN(c2ccc(C(=O)O)cc2)C(=O)/C1=C\c1cc2ccccc2[nH]1`, the inhibition entry in test [3] is “inactive”. With `CC1=NN(c2ccc(C(=O)O)cc2)C(=O)/C1=C\c1c[nH]c2ccccc12`, the inhibition result in [3] is “inactive”. In the case of `O=C(O)c1ccc(N2N=C(Cc3ccccc3)/C(=C/c3ccc[nH]3)C2=O)cc1`, the inhibition entry in test [9] and in test [3] was “inactive” each time. As to `CC1=NN(c2ccc(C(=O)NCc3ccccc3)cc2)C(=O)/C1=C\c1ccc[nH]1`, the inhibition result in [2], in test [9] and in test [3] was “inactive” throughout. With `CCCCCCCc1ccc(CCc2cccc(O)c2C(=O)O)cc1`, the inhibition result in [3] was “inactive”. Turning to `CC1=NN(c2ccc(C(=O)NCCCN3CCCC3)cc2)C(=O)/C1=C\c1ccc[nH]1`, in test [2], the inhibition entry was “inactive”. On to `Cc1nn(-c2ccc(C(=O)O)cc2)c(O)c1Cc1ccccc1`, for which the inhibition entry in test [9] and in test [3] was “inactive” throughout. On to `CC1=NN(c2ccc(C(=O)O)cc2)C(=O)/C1=C\c1cc(C(=O)c2ccccc2[N+](=O)[O-])c[nH]1`, for which the inhibition entry in test [3] was “inactive”. Still for that read-out and setting: the result for `CC1=NN(c2ccc(C(=O)O)cc2)C(=O)/C1=C\c1cc(C(=O)c2ccccc2C)c[nH]1` reads “inactive”.

In the case of `CC1=NN(c2ccc(C(=O)O)cc2)C(=O)/C1=C\c1cc[nH]c1`, the inhibition result in test [9] and in test [3] was “inactive” in each case. Turning to `CC1=NN(c2ccc(C(=O)O)cc2)C(=O)C1`, the inhibition result in test [2] was “inactive”.

Take `CC1=NN(c2ccc(C(=O)O)cc2)C(=O)/C1=C\c1cc(C(=O)c2ccc([N+](=O)[O-])cc2)c[nH]1`: the inhibition entry in test [2] is “inactive”. For the molecule `CC1=NN(c2ccc(C(=O)O)cc2)C(=O)/C1=C(/C)c1ccc[nH]1`, the inhibition result in test [9] and in [3] was “inactive” each time. For the molecule `CC1=NN(c2ccc(C(=O)N(C)C)cc2)C(=O)/C1=C\c1ccc[nH]1`, the inhibition entry in test [9] and in test [3] was “inactive” in each case. Turning to `CC1=NN(c2ccc(C(=O)O)cc2)C(=O)/C1=C\c1cc(C(=O)c2ccccc2)c[nH]1`, the inhibition result in test [3] is “inactive”.

Regarding `CC1=NN(c2ccc(C(=O)O)cc2)C(=O)/C1=C\c1ccn[nH]1`, the inhibition entry in test [9] and in test [3] was “inactive” throughout.

As to `CC1=NN(c2ccc(C(=O)O)cc2)C(=O)/C1=C\c1cc(C(=O)c2ccc(Cl)cc2)c[nH]1`, in test [2], the inhibition entry is “inactive”. On to `CC1=NN(c2ccc(C(=O)O)cc2)C(=O)/C1=C\c1cccn1C`, for which the inhibition entry in [3] is “inactive”. Consider `CC1=NN(c2ccc(C(N)=O)cc2)C(=O)/C1=C\c1ccc[nH]1`, for which the inhibition entry in [9] and in [3] was “inactive” each time. As to `CC1=NN(c2ccc(C(=O)O)cc2)C(=O)/C1=C\c1cc(C(=O)c2ccccc2O)c[nH]1`, in [2], the inhibition result was “inactive”.

As for `CC1=NN(c2cccc(C(=O)O)c2)C(=O)/C1=C\c1ccc[nH]1`, the inhibition result in test [9] and in test [3] was “inactive” in each case.

As to `CC1=NN(c2ccc(C(=O)O)cc2)C(=O)/C1=C\c1cccs1`, in test [3], the inhibition result is “inactive”.

For `CC1=NN(c2ccc(C(=O)O)cc2)C(=O)C1=Cc1ccco1` (mixture of isomers), the inhibition result in [3] is “inactive”.
